Laboratory results as given in PMC5733478, “A Non-imaging High Throughput Approach to Chemical Library Screening at the Unmodified Adenosine-A3 Receptor in Living Cells” (Frontiers in Pharmacology, 2017).
Where a name gives a salt, the structure may show the parent alone. Read-outs that look alike come from different tables or passages of the source.

Biological target: T1, human A3AR (Homo sapiens, UniProt P0DMS8)
T1 construct: expressed in transfected cells
T1 sequence (P0DMS8 1-318): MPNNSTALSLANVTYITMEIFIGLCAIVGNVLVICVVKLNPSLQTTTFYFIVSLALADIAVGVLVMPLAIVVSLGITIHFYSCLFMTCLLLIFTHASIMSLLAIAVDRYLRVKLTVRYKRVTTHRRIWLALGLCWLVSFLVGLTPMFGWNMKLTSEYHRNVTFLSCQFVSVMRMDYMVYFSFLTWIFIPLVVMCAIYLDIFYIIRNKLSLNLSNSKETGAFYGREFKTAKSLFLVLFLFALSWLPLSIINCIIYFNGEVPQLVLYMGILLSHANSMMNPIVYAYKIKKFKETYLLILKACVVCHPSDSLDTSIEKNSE
Assay: LOPAC library primary screen: single concentration (10 μM) inhibition of 25 nM CA200645 binding, PHERAstar FS

[1] = % of control wells (1% DMSO and 25 nM CA200645), compounds at 10 µM, whole live cells expressing the A3AR, mean ± SD, three experiments in duplicate
[2] = compounds tested at 10 µM, % of control wells (1% DMSO and 25 nM CA200645), whole live cells expressing the A3AR, mean ± SD, three experiments in duplicate

Compound | % 25 nM CA200645 binding [%] | other results
Cl.NCCc1ccc(O)cc1 [4-Hydroxyphenethylamine hydrochloride] | 98.7 ± 19.0 | –
Cl.OCc1c[nH]cn1 [4-Imidazolemethanol hydrochloride] | 101.5 ± 8.2 | –
O=[N+]([O-])c1cc(O)c(O)c([N+](=O)[O-])c1 [3,5-Dinitrocatechol] | 100.0 ± 11.8 | –
CC(/C=C/c1cccc(Oc2ccc(F)cc2)c1)N(O)C(N)=O (stereo not drawn) [BWB70C] | 92.4 ± 13.0 | –
O=[N+]([O-])/C=C/c1ccc2c(c1)OCO2 [MNS] | 50.1 ± 14.8 | –
C[C@@H]1O[C@H](C[N+](C)(C)C)C[C@H]1O.[Cl-] (racemic) [(±)-Muscarine chloride] | 94.8 ± 15.8 | –
CC(C)[C@H]1c2ccc(F)cc2CC[C@@]1(CCN(C)CCCc1nc2ccccc2[nH]1)OC(=O)C1CC1 [NNC 55-0396] | 109.8 ± 31.5 | –
O=[N+]([O-])c1cccc2cn[nH]c12 [7-Nitroindazole] | 126.0 ± 15.1 | –
CCT007093 | 68.4 ± 3.4 | –
CC(C)(Oc1ccc(C2CC2(Cl)Cl)cc1)C(=O)O (stereo not drawn) [Ciprofibrate] | 98.7 ± 5.2 | –
CN1C2CCCC1CC(NC(=O)c1nn(C)c3ccccc13)C2 (stereo not drawn) [Granisetron hydrochloride] | 100.4 ± 14.5 | –
Cc1cccc(C#Cc2ccccc2)n1.Cl | 95.8 ± 6.2 | –
COc1ccc([C@@H]2Sc3ccccc3N(CCN(C)C)C(=O)[C@@H]2OC(C)=O)cc1 [Diltiazem hydrochloride] | 97.4 ± 8.9 | –
CC(N)C(O)c1ccc(O)c(O)c1 (single isomer, unassigned; (-)) [(-)-alpha-Methylnorepinephrine] | 100.4 ± 6.1 | –
Cc1cn(C2CC(N=[N+]=[N-])C(CO)O2)c(=O)[nH]c1=O (stereo not drawn) [3'-Azido-3'-deoxythymidine] | 82.3 ± 18.1 | –
COCC(=O)O[C@]1(CCN(C)CCCc2nc3ccccc3[nH]2)CCc2cc(F)ccc2[C@@H]1C(C)C [Mibefradil dihydrochloride] | 107.6 ± 26.6 | –
CCOC(=O)C(C)Oc1cccc2c(=O)n(CC(=O)Nc3ccc4c(c3)OCCO4)ccc12 (stereo not drawn) [SID7969543] | 94.8 ± 24.3 | –
C[C@H]1C[C@H]2[C@@H]3CCC4=CC(=O)C=C[C@]4(C)[C@@]3(F)[C@@H](O)C[C@]2(C)[C@@]1(O)C(=O)CO [Betamethasone] | 77.0 ± 7.6 | –
COc1cc(CC(=O)O)ccc1O [4-Hydroxy-3-methoxyphenylacetic acid] | 94.9 ± 9.6 | –
O=c1[nH]cc(F)c(=O)[nH]1 [5-Fluorouracil] | 98.8 ± 8.7 | –
Oc1ncnc2[nH]ncc12 [Allopurinol] | 99.8 ± 7.2 | –
CCN(CC)c1ncnc2c1ncn2[C@@H]1O[C@H](COP(=O)([O-])OP(=O)([O-])C(Br)(Br)P(=O)([O-])O)[C@@H](O)[C@H]1O.[Na+].[Na+].[Na+] [ARL 67156 trisodium salt] | 103.2 ± 16.2 | –
CN(C)CCC=C1c2ccccc2COc2ccccc21 [Doxepin hydrochloride] | 110.0 ± 13.2 | –
CNCCC=C1c2ccccc2CCc2ccccc21 [Nortriptyline hydrochloride] | 106.1 ± 17.3 | –

Compound | % 25 nM CA200645 binding [%] | other results
CC1(C)CCC=[N+]1[O-] [5,5-Dimethyl-1-pyrroline-N-oxide] | 106.0 ± 5.3 | –
CO[C@H]1O[C@@H]2O[C@@]3(C)CC[C@H]4[C@H](C)CC[C@@H]([C@H]1C)[C@@]24OO3 [Artemether] | – | % 25 nM CA200645 binding [1]: 99.4 ± 9.9%
CC(=O)O[C@H]1Cc2ccccc2N(C(N)=O)c2ccccc21 [BIA 2-093] | 110.6 ± 5.0 | –
CC1=NS(=O)(=O)c2cc(Cl)ccc2N1 [Diazoxide] | 101.5 ± 12.2 | –
NCCc1ccc(O)c(O)c1 [Dopamine hydrochloride] | 93.0 ± 11.1 | –
Clc1ccc2c(c1)C(N1CCNCC1)=Nc1ccccc1O2 [Amoxapine] | 102.6 ± 1.7 | –
Cl.OC1CCCCC1N1CCC(c2ccccc2)CC1 (racemic) [(±)-Vesamicol hydrochloride] | 112.9 ± 7.4 | –
COc1cccc(NC(=O)/C=C/c2ccc(Cl)cc2)c1 [SB-366791] | 92.0 ± 7.1 | –
Clc1ccc(N2CCN(Cc3cc4ccccn4n3)CC2)cc1 [FAUC 213] | 76.8 ± 3.4 | –
Cl.NO [Hydroxylamine hydrochloride] | 99.3 ± 3.4 | –
CC(C)(C)NC[C@H](O)COc1nsnc1N1CCOCC1.O=C(O)/C=C\C(=O)O [S(-)-Timolol maleate] | 103.3 ± 4.5 | –
O=c1[nH]c2ccccc2n1CCCN1CCC(n2c(=O)[nH]c3cc(Cl)ccc32)CC1 [Domperidone] | 99.6 ± 10.5 | –
NC1(C(=O)O)CCc2cc(C(=O)O)ccc21 (stereo not drawn) [AIDA] | 99.4 ± 5.4 | –
CC[n+]1c(/C=C/C=C2/N(C)c3ccccc3C2(C)C)sc2ccccc21.[I-] [AC-93253 iodide] | 89.8 ± 11.3 | –
NCCCCN [Putrescine dihydrochloride] | 106.2 ± 11.7 | –
Nc1ncnc2c1c(-c1ccc(Oc3ccccc3)cc1)cn2C1CCCC1 | 58.8 ± 13.2 | –
Cl.O=C(Cc1ccc(Cl)c(Cl)c1)N1CCCCC1CN1CCCC1 (stereo not drawn) [BRL 52537 hydrochloride] | 112.4 ± 4.2 | –
CC(=O)c1ccc2c(c1)N(CCCN(C)C)c1ccccc1S2 [Acepromazine maleate] | 90.7 ± 4.5 | –
Cl.NC1(C(=O)O)CC1 | 88.3 ± 14.5 | –
CC(C)(C)c1ccc(C(O)CCCN2CCC(C(O)(c3ccccc3)c3ccccc3)CC2)cc1 (stereo not drawn) [Terfenadine] | 101.9 ± 5.3 | –
Brc1c(Br)c(Br)c2n[nH]nc2c1Br [TBB] | 67.4 ± 13.4 | –
Cc1ccc(Cl)c(Nc2ccccc2C(=O)O)c1Cl [Meclofenamic acid sodium] | 93.6 ± 9.6 | –
CCC1(C2=NCCN2)Cc2ccccc2O1 (stereo not drawn) [Efaroxan hydrochloride] | – | % 25 nM CA200645 binding [2]: 95.2 ± 6.3%
NC(=O)c1cn(Cc2c(F)cccc2F)nn1 [Rufinamide] | 100.9 ± 12.8 | –

Compound | % 25 nM CA200645 binding [%] | other results
NC12CC3CC(CC(C3)C1)C2 [Amantadine hydrochloride] | 104.6 ± 3.5 | –
NC/C=C/C(=O)O [(E)-4-amino-2-butenoic acid] | 101.5 ± 12.6 | –
C[N+](C)(C)CC=O [Betaine aldehyde chloride] | 95.0 ± 5.8 | –
O=C(O)C(O)C(O)C(=O)O.c1cnc2cc3c(cc2n1)[C@@H]1CNC[C@H]3C1 [Varenicline tartrate] | 90.5 ± 2.6 | –
O=C(O)C1CCCNC1 (racemic) [(±)-Nipecotic acid] | 101.9 ± 5.9 | –
N=C(N)c1ccc(OCCCCCOc2ccc(C(=N)N)cc2)cc1 [Pentamidine isethionate] | 100.3 ± 6.3 | –
O.O=c1cc(-c2ccccc2)oc2c(O)c(O)ccc12 [7,8-Dihydroxyflavone hydrate] | 68.2 ± 13.0 | –
Cc1nc2c(OCc3ccccc3)cccn2c1CC#N [SCH-28080] | 97.5 ± 14.8 | –
O=c1c(-c2ccc(O)cc2)coc2cc(O)ccc12 [Daidzein] | 88.9 ± 6.0 | –
Cl.Cl.Fc1ccc(C(OCCN2CCN(CCCc3ccccc3)CC2)c2ccc(F)cc2)cc1 [GBR-12909 dihydrochloride] | 95.7 ± 6.3 | –
O=c1ccc2ccc(O)c(O)c2o1 [Daphnetin] | 102.0 ± 13.1 | –
Cc1cn([C@H]2C=C[C@@H](CO)O2)c(=O)[nH]c1=O [2',3'-didehydro-3'-deoxythymidine] | 82.1 ± 11.9 | –
Cl.Cl.Oc1ccc2c3c1O[C@H]1c4[nH]c5c(c4C[C@@]4(O)[C@@H](C2)N(CC2CC2)CC[C@]314)C[C@@]1(O)[C@H]2Cc3ccc(O)c4c3[C@@]1(CCN2CC1CC1)[C@H]5O4 [nor-Binaltorphimine dihydrochloride] | 96.9 ± 14.7 | –
CC(=O)NCCc1c[nH]c2ccc(O)cc12 [N-Acetyl-5-hydroxytryptamine] | 100.5 ± 7.6 | –
CC1(C)NC(=O)N(c2ccc([N+](=O)[O-])c(C(F)(F)F)c2)C1=O [Nilutamide] | 98.7 ± 10.0 | –
CN(C)CC[C@@H](c1ccc(Br)cc1)c1ccccn1 [(+)-Brompheniramine maleate] | 97.2 ± 7.4 | –
C#CCOC(=O)C1=CCCN(C)C1 [Arecaidine propargyl ester hydrobromide] | 96.0 ± 12.2 | –
CC(C)NCC(O)COc1ccc(CCOCC2CC2)cc1 (stereo not drawn) [Betaxolol hydrochloride] | 98.4 ± 4.9 | –
C#CCN(C)CCCOc1ccc(Cl)cc1Cl [Clorgyline hydrochloride] | – | % 25 nM CA200645 binding [2]: 96.0 ± 4.2%
N#CC(C#N)=Cc1ccc(O)c(O)c1 [Tyrphostin 23] | – | % 25 nM CA200645 binding [1]: 84.9 ± 6.4%
C=CCN1C[C@H](C)N([C@H](c2ccc(C(=O)N(CC)CC)cc2)c2cccc(OC)c2)C[C@H]1C [SNC80] | 94.8 ± 9.3 | –
CCC1(c2ccc(N)cc2)CCC(=O)NC1=O (racemic) [(±)-p-Aminoglutethimide] | 94.1 ± 8.7 | –
CCC1(C)CC(=O)NC1=O (stereo not drawn) [Ethosuximide] | 88.4 ± 5.5 | –
CCc1c(C)[nH]c2c1C(=O)C(CN1CCOCC1)CC2 (stereo not drawn) [Molindone hydrochloride] | 91.2 ± 7.2 | –
